Results published in patent US20140329782A1, “COMBINED THERAPEUTIC AGENT” (priority 2011, published 2014).

Tests used:
Crohn's disease = conditions: cited from earlier work
[1] = in vivo; cited from earlier work
[2] = test system: peripheral mononuclear cells isolated from the blood of the test subjects; conditions: 100 μg/ml calcitriol, cited from earlier work
[3] = test system: patients suffering from persistent asthma (GINA II); assay: Use and efficacy study in patients with persistent asthma (GINA II); format: in vivo, human
Method: • In the context of a first set of investigations, 11 patients from 32 to 65 years of age suffering from persistent asthma (GINA II) were treated with a combination therapy composed of inhaled glucocorticoid (beclomethasone, 2×200 μg/which inhalational) and inhaled long-acting beta-2 sympathomimetics (LABA, salmeterol) and also, perorally, theophylline. After one week of therapy, it was possible to achieve mild improvement of pulmonary function in 5 of the 11 test subjects. […] In two of the treated patients, it was also possible to reduce the beta-2 agonist demand by 10%. A further group based on 9 patients from 39 to 70 years of age having an identical indication, i.e., persistent asthma (GINA II), who were similarly administered with the abovementioned combination therapy composed of inhaled glucocorticoid and inhaled long-acting beta-2 sympathomimetics and also theophylline additionally received vitamin D for one week in a daily dose of 80 μg. After one week of therapy with the aforementioned dose, it was possible to achieve a mild to moderate improvement in pulmonary function in 6 of the 9 test subjects. After continued long-term therapy for 12 weeks, the persistent bronchial asthma had stabilized insofar as it was possible to reduce the inhaled glucocorticoid need by up to 60% in 7 of the 9 patients and it was possible to even completely temporarily discontinue the inhaled glucocorticoids in 1 of the 9 patients. […] In 4 of the treated patients, it was also possible to reduce the beta-2 agonist need by up to 40%.

[4] = after long-term therapy for 12 weeks

Question: With Cn1cnc([N+](=O)[O-])c1Sc1ncnc2nc[nH]c12 [azathioprine] as the compound, how does the remission (Crohn's disease; maintaining remission) read?
Answer: Its remission is 83%.

Question: With C=C1CC[C@H](O)C/C1=C/C=C1\CCC[C@]2(C)[C@@H]([C@H](C)CCCC(C)(C)O)CC[C@@H]12 [calcifediol, 25-Hydroxyvitamin D3] as the compound, how does the half life [1] read?
Answer: The half life was “about 2.5 weeks”.

Question: With C=C1/C(=C\C=C2/CCC[C@]3(C)[C@@H]([C@H](C)CCCC(C)(C)O)CC[C@@H]23)C[C@@H](O)C[C@@H]1O [calcitriol, 1,25-dihydroxyvitamin D3] as the compound, how does the “production of interferon gamma” value [2] read?
Answer: The value was “reduces”.

Question: And the “production of interleukin 10” value [2]?
Answer: The value was “stimulates”.

Question: What about the “inhibition of TNF-alpha production by patient group” value ([2]; Crohn's disease patients vs healthy) of the same compound?
Answer: Its value is “only in cells from patients suffering from Crohn's disease and not in cells from healthy patients”.

Question: What about the “production of TNF-alpha in peripheral mononuclear cells” value ([2]; cells from patients suffering from inflammatory bowel diseases) of the same compound?
Answer: The value was “could be lowered”.

Question: For vitamin D, which “patients in whom inhaled glucocorticoids could be completely temporarily discontinued” value ([3]; after 12 weeks) is on record?
Answer: Its value is 1 of the 9.

Question: What about the “patients in whom the beta-2 agonist demand could be reduced” value ([3]; after 12 weeks) of the same compound?
Answer: Its value is 4.

Question: And the “patients in whom the inhaled glucocorticoid demand could be reduced” value ([3]; after 12 weeks)?
Answer: Its value is 7 of the 9.

Question: What about the “reduction of the beta-2 agonist demand” value [3, 4] of the same compound?
Answer: Its value is “up to 40%”.

Question: And the “reduction of the inhaled glucocorticoid demand” value [3, 4]?
Answer: Its value is “up to 60%”.

Question: And the “test subjects with improvement of pulmonary function” value ([3]; after one week of therapy)?
Answer: The value was 6 of the 9.

Question: And the tolerability ([3]; vitamin D 80 μg daily added to the combination therapy)?
Answer: Its tolerability is “well tolerated with no adverse effects”.

Question: For CCCC1O[C@@H]2C[C@H]3[C@@H]4CCC5=CC(=O)C=C[C@]5(C)[C@H]4[C@@H](O)C[C@]3(C)[C@]2(C(=O)CO)O1 (some centres unmarked) [budesonide], which systemic adverse effects (Crohn's disease; 6 mg of budesonide) is on record?
Answer: Its systemic adverse effects is “frequent systemic adverse effects with cortisol suppression”.
